Tested on: human B cells
Experiment: Human B cells proliferation stimulated by anti-IgM (3H thymidine)
Assay type: cell-based
Procedure: Human B Cells Proliferation stimulate by anti-IgM
Isolate PBMCs from Leukopac or from human fresh blood. Isolate human B cells by using Miltenyi protocol and B cell isolation kit II.—human B cells were Purified by using autoMACS® column.
Activation of Human B Cells
Use 96 well Flat bottom plate, plate 50000/well purified B cells in B cell proffer-ation medium (DMEM+5% FCS, 10 mM Hepes, 50 μM 2-mercaptoethanol); 150 μL medium contain 250 ng/mL CD40L-LZ recombinant protein (Amgen) and 2 μg/mL anti-Human IgM antibody (Jackson ImmunoReseach Lab.#109-006-129), mixed with 50 μL B cell medium containing PI3K inhibitors and incubate 72 h at 37° C. incubator. After 72 h, pulse labeling B cells with 0.5-1 uCi/well ^3H thymidine for overnight ˜18 h, and harvest cell using TOM harvester.

[1] = Homo sapiens, B-cell, 72 h, purified human B cells, anti-Human IgM + CD40L-LZ

In the case of `Fc1cccc(-c2nc3c(Cl)cccc3cc2CNc2ncnc3[nH]cnc23)c1` [N-((8-chloro-2-(3-fluorophenyl)-3-quinolinyl)methyl)-9H-purin-6-amine], the IC50 [1] is reported as 0.0275 µM.
In the case of `C[C@H](Nc1ncnc2[nH]cnc12)c1cc2cccc(Cl)c2nc1-c1cccc(S(C)(=O)=O)c1` [N-((1S)-1-(8-chloro-2-(3-(methylsulfonyl)phenyl)-3-quinolinyl)ethyl)-9H-purin-6-amine], the IC50 [1] is reported as 0.0558 µM.
In the case of `Fc1ccc2cc(CNc3ncnc4[nH]cnc34)c(-c3ccccc3Cl)nc2c1` [N-((2-(2-chlorophenyl)-7-fluoro-3-quinolinyl)methyl)-9H-purin-6-amine], the IC50 [1] is reported as 0.0887 µM.
For `CC[C@H](Nc1ncnc2[nH]cnc12)c1cc2cccc(Cl)c2nc1-c1cccc(F)c1` [N-((1S)-1-(8-chloro-2-(3-fluorophenyl)-3-quinolinyl)propyl)-9H-purin-6-amine], the IC50 [1] was 0.0053 µM.
With `C[C@H](Nc1ncnc2[nH]cnc12)c1cc2cccc(Cl)c2nc1-c1cccc(Cl)c1` [N-((1S)-1-(8-chloro-2-(3-chlorophenyl)-3-quinolinyl)ethyl)-9H-purin-6-amine] the IC50 [1] was 0.00552 µM.
`FC(F)(F)c1ccccc1-c1nc2c(Cl)cccc2nc1CNc1ncnc2[nH]cnc12` [N-((5-chloro-3-(2-(trifluoromethyl)phenyl)-2-quinoxalinyl)methyl)-9H-purin-6-amine] showed an IC50 [1] of 0.0418 µM.
With `CC(Oc1ccc(F)cc1-c1nc2c(Cl)cccc2cc1CNc1ncnc2[nH]cnc12)c1ccccc1` (centres unmarked) [N-((8-chloro-2-(5-fluoro-2-(1-phenylethoxy)phenyl)-3-quinolinyl)methyl)-9H-purin-6-amine] the IC50 [1] was 0.565 µM.
`C[C@H](Nc1ncnc2[nH]cnc12)c1nc2cccc(C(F)(F)F)c2nc1-c1ccccc1Cl` [N-((1S)-1-(3-(2-chlorophenyl)-5-(trifluoromethyl)-2-quinoxalinyl)ethyl)-9H-purin-6-amine] gave an IC50 [1] of 0.0104 µM.
Work on `C[C@H](Nc1ncnc2[nH]cnc12)c1cc2ccc(F)cc2nc1-c1cc(F)ccc1Cl` [N-((1S)-1-(2-(2-chloro-5-fluorophenyl)-7-fluoro-3-quinolinyl)ethyl)-9H-purin-6-amine] yielded an IC50 [1] of 0.02 µM.
With `Clc1cccc2cc(COc3ncnc4[nH]cnc34)c(-c3ccccc3)nc12` [8-chloro-2-phenyl-3((9H-purin-6-yloxy)methyl)quinoline] the IC50 [1] was 0.0814 µM.
`C[C@H](Nc1ncnc2nc[nH]c12)c1cc2cccc(F)c2nc1-c1ccccc1Cl` [N-((1S)-1-(2-(2-chlorophenyl)-8-fluoro-3-quinolinyl)ethyl)-7H-purin-6-amine] gave an IC50 [1] of 0.0114 µM.
With `C[C@H](Nc1ncnc2[nH]cnc12)c1cc2cccc(Cl)c2nc1-c1cncs1` [N-((S)-1-(8-Chloro-2-(thiazol-5-yl)quinolin-3-yl)ethyl)-9H-purin-6-amine] the IC50 [1] was 0.0219 µM.
With `C[C@H](Nc1ncnc2nc[nH]c12)c1cc2cccc(F)c2nc1-c1cc(F)cc(F)c1` [N-((1S)-1-(2-(3,5-difluorophenyl)-8-fluoro-3-quinolinyl)ethyl)-7H-purin-6-amine] the IC50 [1] was 0.00707 µM.
In the case of `C[C@H](Nc1ncnc2[nH]cnc12)c1cc2cccc(Cl)c2nc1-c1ccccn1` [N-((1S)-1-(8-chloro-2-(2-pyridinyl)-3-quinolinyl)ethyl)-9H-purin-6-amine], the IC50 [1] is reported as 0.00324 µM.
Work on `C[C@H](Nc1ncnc2[nH]cnc12)c1cc2cccc(Cl)c2nc1-c1cc(F)ccc1Cl` [N-((1S)-1-(8-chloro-2-(2-chloro-5-fluorophenyl)-3-quinolinyl)ethyl)-9H-purin-6-amine] yielded an IC50 [1] of 0.0466 µM.
`Clc1cccc2cc(CNc3ncnc4[nH]cnc34)c(-c3nccs3)nc12` [N-((8-chloro-2-(1,3-thiazol-2-yl)-3-quinolinyl)methyl)-9H-purin-6-amine] gave an IC50 [1] of 0.209 µM.
`FC1CCCN(c2nc3c(Cl)cccc3cc2CNc2ncnc3[nH]cnc23)C1` (centres unmarked) [N-((8-chloro-2-(3-fluoro-1-piperidinyl)-3-quinolinyl)methyl)-9H-purin-6-amine] gave an IC50 [1] of 0.0955 µM.
`C[C@H](Nc1ncnc2[nH]cnc12)c1cc2cccc(Cl)c2nc1-c1cscn1` [N-((1S)-1-(8-chloro-2-(1,3-thiazol-4-yl)-3-quinolinyl)ethyl)-9H-purin-6-amine] showed an IC50 [1] of 0.000537 µM.
Compound `Clc1cccc(-c2nc3c(Cl)cccc3cc2CNc2ncnc3[nH]cnc23)c1` [N-((8-chloro-2-(3-chlorophenyl)-3-quinolinyl)methyl)-9H-purin-6-amine] has an IC50 [1] of 0.411 µM.
In the case of `Clc1cccc2cc(CNc3ncnc4[nH]cnc34)c(-c3cn[nH]c3)nc12` [N-((8-chloro-2-(1H-pyrazol-4-yl)-3-quinolinyl)methyl)-9H-purin-6-amine], the IC50 [1] is reported as 0.158 µM.
`FC(F)(F)c1ccncc1-c1nc2c(Cl)cccc2cc1CNc1ncnc2[nH]cnc12` [N-((8-chloro-2-(4-(trifluoromethyl)-3-pyridinyl)-3-quinolinyl)methyl)-9H-purin-6-amine] gave an IC50 [1] of 0.0695 µM.
Work on `Clc1cccc2cc(CNc3ncnc4[nH]cnc34)c(-c3ccns3)nc12` [N-((8-chloro-2-(5-isothiazolyl)-3-quinolinyl)methyl)-9H-purin-6-amine] yielded an IC50 [1] of 0.0656 µM.
`C[C@H](Nc1ncnc2[nH]cnc12)c1cc2cccc(Cl)c2nc1-c1nccs1` [N-((1S)-1-(8-chloro-2-(1,3-thiazol-2-yl)-3-quinolinyl)ethyl)-9H-purin-6-amine] gave an IC50 [1] of 0.00164 µM.
Work on `C[C@H](Nc1ncnc2nc[nH]c12)c1cc2cccc(F)c2nc1-c1cc(F)ccc1Cl` [N-((1S)-1-(2-(2-chloro-5-fluorophenyl)-8-fluoro-3-quinolinyl)ethyl)-7H-purin-6-amine] yielded an IC50 [1] of 0.0337 µM.
Compound `C[C@@H](Nc1ncnc2[nH]cnc12)c1cc2c(Cl)cccc2nc1-c1cccc(F)c1` [N-((R)-1-(5-Chloro-2-(3-fluorophenyl)quinolin-3-yl)ethyl)-9H-purin-6-amine] has an IC50 [1] of 0.0336 µM.
Work on `C[C@H](Nc1ncnc2[nH]cnc12)c1cc2cccc(Cl)c2nc1-c1ncccn1` [N-((1S)-1-(8-chloro-2-(2-pyrimidinyl)-3-quinolinyl)ethyl)-9H-purin-6-amine] yielded an IC50 [1] of 0.0904 µM.
`Cc1ncccc1-c1nc2c(Cl)cccc2cc1CNc1ncnc2[nH]cnc12` [N-((8-chloro-2-(2-methyl-3-pyridinyl)-3-quinolinyl)methyl)-9H-purin-6-amine] was tested, and the IC50 [1] was 0.0134 µM.
`CCc1ncccc1-c1nc2c(Cl)cccc2cc1[C@H](C)Nc1ncnc2[nH]cnc12` [N-((1S)-1-(8-chloro-2-(2-ethyl-3-pyridinyl)-3-quinolinyl)ethyl)-9H-purin-6-amine] gave an IC50 [1] of 0.00331 µM.
Work on `N#Cc1cccc2cc(CNc3ncnc4[nH]cnc34)c(-c3cccc(F)c3)nc12` [2-(3-fluorophenyl)-3-((9H-purin-6-ylamino)methyl)-8-quinolinecarbonitrile] yielded an IC50 [1] of 0.3 µM.
With `Clc1ccccc1-c1nc2c(Cl)cccc2cc1CNc1ccnc2[nH]cnc12` [N-((8-chloro-2-(2-chlorophenyl)-3-quinolinyl)methyl)-3H-imidazo[4,5-b]pyridin-7-amine] the IC50 [1] was 0.361 µM.
In the case of `C[C@H](Nc1ncnc2[nH]cnc12)c1cc2ccc(F)cc2nc1-c1cccnc1` [N-((1S)-1-(7-fluoro-2-(3-pyridinyl)-3-quinolinyl)ethyl)-9H-purin-6-amine], the IC50 [1] is reported as 0.0122 µM.
`C[C@H](Nc1ncnc2[nH]cnc12)c1cc2cccc(-c3ccccc3)c2nc1-c1ccccc1` [N-((1S)-1-(2,8-diphenyl-3-quinolinyl)ethyl)-9H-purin-6-amine] showed an IC50 [1] of 0.0188 µM.
`Cc1ncc(F)cc1-c1nc2c(Cl)cccc2cc1[C@H](C)Nc1ncnc2[nH]cnc12` [N-((1S)-1-(8-chloro-2-(5-fluoro-2-methyl-3-pyridinyl)-3-quinolinyl)ethyl)-9H-purin-6-amine] gave an IC50 [1] of 0.0169 µM.
`C[C@H](Nc1ncnc2[nH]cnc12)c1cc2cccc(Cl)c2nc1-c1cc(F)cc(F)c1` [N-((1S)-1-(8-chloro-2-(3,5-difluorophenyl)-3-quinolinyl)ethyl)-9H-purin-6-amine] showed an IC50 [1] of 0.00504 µM and an IC50 (Homo sapiens, B-cell, purified human B cells, anti-Human IgM + CD40L-LZ, 72 h) of 0.00504 µM.
Compound `C[C@H](Nc1ncnc2[nH]cnc12)c1cc2cccc(Cl)c2nc1-c1cc(F)ccc1OCc1ccccc1` [N-((1S)-1-(2-(2-(benzyloxy)-5-fluorophenyl)-8-chloro-3-quinolinyl)ethyl)-9H-purin-6-amine] has an IC50 [1] of 0.0168 µM.
For `C[C@H](Nc1ncnc2[nH]cnc12)c1cc2ccc(F)cc2nc1-c1cc(F)cc(F)c1` [N-((1S)-1-(2-(3,5-difluorophenyl)-7-fluoro-3-quinolinyl)ethyl)-9H-purin-6-amine], the IC50 [1] was 0.00515 µM.
Work on `C[C@H](Nc1ncnc2[nH]cnc12)c1nc2cccc(Cl)c2cc1-c1cccc(F)c1` [N-((1S)-1-(5-chloro-3-(3-fluorophenyl)-2-quinolinyl)ethyl)-9H-purin-6-amine] yielded an IC50 [1] of 0.00878 µM.
`Fc1cc(F)cc(-c2nc3c(Cl)cccc3cc2CNc2ncnc3[nH]cnc23)c1` [N-((8-chloro-2-(3,5-difluorophenyl)-3-quinolinyl)methyl)-9H-purin-6-amine] was tested, and the IC50 [1] was 0.056 µM.
`Fc1ccc(Cl)c(-c2nc3c(Cl)cccc3cc2CNc2ncnc3[nH]cnc23)c1` [N-((8-chloro-2-(2-chloro-5-fluorophenyl)-3-quinolinyl)methyl)-9H-purin-6-amine] showed an IC50 [1] of 0.0384 µM.
In the case of `Cc1cccc2nc(CNc3ncnc4ccsc34)c(-c3ccccc3Cl)nc12` [N-((3-(2-chlorophenyl)-5-methyl-2-quinoxalinyl)methyl)thieno[3,2-d]pyrimidin-4-amine], the IC50 [1] is reported as 0.194 µM.
Work on `C[C@H](Nc1ncnc2[nH]cnc12)c1cc2cccc(Cl)c2nc1-c1ccc(F)cc1` [N-((1S)-1-(8-chloro-2-(4-fluorophenyl)-3-quinolinyl)ethyl)-9H-purin-6-amine] yielded an IC50 [1] of 0.0105 µM.
With `Fc1ccc(F)c(-c2nc3c(Cl)cccc3cc2CNc2ncnc3[nH]cnc23)c1` [N-((8-chloro-2-(2,5-difluorophenyl)-3-quinolinyl)methyl)-9H-purin-6-amine] the IC50 [1] was 0.0382 µM.
With `C[C@H](Nc1ncnc2[nH]cnc12)c1cc2cccc(F)c2nc1-c1ccccc1` [(S)—N-(1-(8-fluoro-2-phenylquinolin-3-yl)ethyl)-9H-purin-6-amine] the IC50 [1] was 0.00142 µM.

Source: patent publication US8586739B2, “Heterocyclic compounds and their uses” (Amgen Inc., priority 2007, dated 2013)
